# In patent publication US11167007B2, “FOXM1 modulators and uses thereof” (City of Hope, priority 2016, dated 2021):
# Target: T1, FOXM1/β-catenin (Mus musculus, UniProt O08696)
# T1 construct: endogenous in cells; host or cells: GT1-7
# T1 sequence (O08696 1-760): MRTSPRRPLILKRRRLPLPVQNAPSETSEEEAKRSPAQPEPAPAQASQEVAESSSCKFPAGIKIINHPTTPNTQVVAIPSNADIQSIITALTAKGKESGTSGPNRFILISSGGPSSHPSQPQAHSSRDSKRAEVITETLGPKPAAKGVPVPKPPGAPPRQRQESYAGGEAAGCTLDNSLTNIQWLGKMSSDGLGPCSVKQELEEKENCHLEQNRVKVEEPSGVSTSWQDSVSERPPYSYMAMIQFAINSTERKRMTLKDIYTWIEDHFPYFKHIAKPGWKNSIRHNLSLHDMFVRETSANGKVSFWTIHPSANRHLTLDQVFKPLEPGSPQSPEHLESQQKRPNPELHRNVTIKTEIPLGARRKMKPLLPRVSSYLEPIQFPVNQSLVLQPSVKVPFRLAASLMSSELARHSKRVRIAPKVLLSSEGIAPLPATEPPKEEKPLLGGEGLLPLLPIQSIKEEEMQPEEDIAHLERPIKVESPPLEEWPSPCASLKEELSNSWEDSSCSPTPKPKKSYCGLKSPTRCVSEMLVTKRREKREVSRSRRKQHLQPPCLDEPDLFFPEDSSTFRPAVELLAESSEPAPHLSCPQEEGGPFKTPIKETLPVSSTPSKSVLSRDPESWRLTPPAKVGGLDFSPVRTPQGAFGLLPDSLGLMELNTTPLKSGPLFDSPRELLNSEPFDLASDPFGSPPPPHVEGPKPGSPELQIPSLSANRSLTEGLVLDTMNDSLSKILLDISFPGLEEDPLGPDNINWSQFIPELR
# Experiment: Co-immunoprecipitation of β-catenin from GT1-7 cell lysates, Western blot for FOXM1
# Type: cell-based, murine
# Details: FIG. 3E
# Procedure: Immunoprecipitation (IP). The co-IP assay was performed as described by Zhang et al, Cancer Cell, 20(4):427-42 (2011). In brief, cells were lysed on ice for 20 minutes in co-IP buffer containing 10 mmol/L Hepes (pH8), 300 mmol/L NaCL, 0.1 mmol/L EDTA, 20% glycerol, 0.2% NP-40 and protease inhibitor (Roche Diagnostics). Lysate was centrifuged at 10000 g for 10 minutes at 4° C. Lysate was incubated with primary antibody (β-catenin: rabbit, 9562, Cell Signaling Technology) overnight at 4° C. followed by incubation with 30 uL of Protein A/G beads for 2 hours at 4° C. Collected protein complexes were washed and analyzed by Western blotting.
# Western Blot. Cell lysates was separated on a 6% SDS page gel and transferred to a nitrocellulose membrane. The membrane was blocked for one hour in 5% skim milk dissolved in TBS-T and probed with the following antibodies ([…]): FoxM1 (rabbit, GeneTex), AR: 441 (mouse, Santa Cruz Biotechnology), β-catenin (rabbit 9562, Cell Signaling Technology), p84 (mouse, GeneTex) and actin (mouse, Santa Cruz Biotechnology). Horse radish peroxidase linked secondary antibodies were used along with ECL reagents for visualization. Western blots were quantified using Quantity One analysis software (BioRad).
# Co-immunoprecipitation confirmed a direct interaction between β-catenin and FOXM1 as well as between β-catenin and AR (FIG. 3E). […]
smiles,measurement,value
C=C(NC(=O)C(=C)NC(=O)c1csc(C2=N[C@@H]3c4csc(n4)[C@H]4NC(=O)c5csc(n5)[C@H]([C@](C)(O)[C@@H](C)O)NC(=O)[C@H]5CSC(=N5)/C(=C/C)NC(=O)[C@H]([C@@H](C)O)NC(=O)c5csc(n5)[C@]3(CC2)NC(=O)[C@H](C)NC(=O)C(=C)NC(=O)[C@H](C)NC(=O)[C@H]([C@@H](C)CC)N[C@@H]2C=Cc3c([C@H](C)O)cc(nc3[C@H]2O)C(=O)O[C@@H]4C)n1)C(N)=O [thiostrepton],amount of FOXM1 pulled down with β-catenin,reduced
